# Test results taken from patent US10875837B2, “Inhibitors of the fibroblast growth factor receptor” (BLUEPRINT MEDICINES CORPORATION, priority 2013, dated 2020).
# Legend:
# wild type FGFR-4 = target: T1, wild type FGFR-4 (Homo sapiens, UniProt P22455); test: FGFR-4 wild type assay at Km (Caliper electrophoretic mobility shift); type: biochemical; details: wild type FGFR-4, 400 uM ATP, 25 C, 90 minutes; read-out: INH-FGFR4
# T1 construct: purchased Carna Biosciences, Inc
# Experimental: Biochemical Activity Assessment In order to assess the activity of chemical compounds against the relevant kinase of interest, the Caliper LifeSciences electrophoretic mobility shift technology platform is utilized. Fluorescently labeled substrate peptide is incubated in the presence dosed levels of compounds, a set concentration of kinase and of ATP, so that a reflective proportion of the peptide is phosphorylated. At the end of the reaction, the mix of phosphorylated (product) and non-phosphorylated (substrate) peptides are passed through the microfluidic system of the Caliper LabChip® EZ Reader II, under an applied potential difference. The presence of the phosphate group on the product peptide provides a difference in mass and charge between the product peptide and the substrate peptide, resulting in a separation of the substrate and product pools in the sample. As the pools pass the LEDS within the instrument, these pools are detected and resolved as separate peaks. The ratio between these peaks therefore reflects the activity of the chemical matter at that concentration in that well, under those conditions.
# FGFR-4 wild type assay at Km: In each well of a 384-well plate, 0.5 ng/ul of wild type FGFR-4 (Carna Biosciences, Inc.) was incubated in a total of 12.5 ul of buffer (100 mM HEPES pH 7.5, 0.015% Brij 35, 10 mM MgCl2, 1 mM DTT) with 1 uM CSKtide (5-FAM-KKKKEEIYFFFG-NH2) and 400 uM ATP at 25 C for 90 minutes in the presence or absence of a dosed concentration series of compound (1% DMSO final concentration). The reaction was stopped by the addition of 70 ul of Stop buffer (100 mM HEPES pH 7.5, 0.015% Brij 35, 35 mM EDTA and 0.2% of Coating Reagent 3 (Caliper Lifesciences)). The plate was then read on a Caliper LabChip® EZ Reader II (protocol settings: −1.9 psi, upstream voltage −700, downstream voltage −3000, post sample sip 35 s).
# [1] = system: pMAPK (Thr202/Tyr204) in MDA-MB453 or DMS 114 cells; test: Detection of pMAPK (Thr202/Tyr204) using Alpha ELISA (pERK alphaLISA); type: cell-based; details: 1 hr incubation with compound; cell line not given (MDA-MB453 or DMS 114)
# Experimental: Detection of pMAPK (Thr202/Tyr204) Using Alpha ELISA
# MDA-MB453 or DMS 114 cells were plated in 96-well cell culture plates at a density of 1×10^5 cells or 3×10^4 cells, respectively. Cells were allowed to attach, and growth media was replaced with serum free media. Compounds were added at the indicated concentrations. Following 1 hr incubation in the presence of compound, cells were collected. For the DMS 114 cells, 100 ng/mL FGF2 was added for 10 min prior to cell collection. Cell lysates were prepared and processed according to manufacturer instruction (AlphaScreen® SureFire™ Phospho-ERK 1/2 Kit (Perkin Elmer).
# Hep3B xenograft tumors = test: Hep3B liver cancer cell subcutaneous xenograft model in nude mice; type: in vivo
# Experimental: The effects of Compound 27 on tumor growth inhibition in Hep3B liver cancer cell subcutaneous xenograft model with different dosages were studied.
# Female nude mice (Mus musculus) age 6 to 8 weeks were used. Tumor cell culture and inoculation: Hep3B cells were cultured with EMEM medium (Invitrogen, USA) supplemented with 10% FBS (Gibco, Australia). The cells were harvested in 90% confluence, and the viability was no less than 90%. Mice were implanted subcutaneously (s.c.) with 200 μL of 10×10^6 Hep3B cells in 50% Matrigel in the right flank at the beginning of the study.
# Animal grouping and dosing schedule: Ten days after cell implantation, when tumors reached an average volume of 284 mm^3, […] were selected based on tumor volume and randomly assigned to 5 treatment groups (n=9). The day of randomization was denoted as day 0 and the treatment was started from then on.
# Tumor volume and body weight measurements: Tumor size was measured twice per week in two dimensions using a caliper, and the volume was expressed in mm^3 using the formula: V=0.5 a× b^2 where a and b were the long and short diameters of the tumor, respectively. Body weight was measured at least twice weekly.
# T1 sequence (P22455 22-802): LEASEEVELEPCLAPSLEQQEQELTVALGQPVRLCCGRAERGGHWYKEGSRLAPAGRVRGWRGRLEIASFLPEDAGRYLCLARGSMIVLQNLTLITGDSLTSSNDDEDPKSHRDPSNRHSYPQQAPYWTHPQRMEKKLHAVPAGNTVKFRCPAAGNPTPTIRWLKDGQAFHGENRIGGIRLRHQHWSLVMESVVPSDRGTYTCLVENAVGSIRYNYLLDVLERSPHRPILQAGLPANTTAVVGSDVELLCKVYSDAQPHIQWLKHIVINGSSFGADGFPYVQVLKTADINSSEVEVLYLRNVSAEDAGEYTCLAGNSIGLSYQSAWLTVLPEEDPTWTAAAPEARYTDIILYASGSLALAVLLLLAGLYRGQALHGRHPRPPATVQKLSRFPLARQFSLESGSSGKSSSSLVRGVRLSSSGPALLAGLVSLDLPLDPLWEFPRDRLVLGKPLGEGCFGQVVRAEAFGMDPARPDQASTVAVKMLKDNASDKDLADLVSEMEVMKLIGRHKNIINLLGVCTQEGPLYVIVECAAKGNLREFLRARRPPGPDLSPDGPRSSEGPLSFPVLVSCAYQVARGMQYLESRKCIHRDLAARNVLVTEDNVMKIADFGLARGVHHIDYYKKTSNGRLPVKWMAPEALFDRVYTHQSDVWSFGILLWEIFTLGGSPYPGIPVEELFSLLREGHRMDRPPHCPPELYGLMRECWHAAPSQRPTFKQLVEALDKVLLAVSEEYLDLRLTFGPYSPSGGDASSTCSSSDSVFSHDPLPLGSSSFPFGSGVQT
compound,measurement,setting,value
"C=CC(=O)N[C@H]1COC[C@H]1Nc1ncc2cc(-c3c(Cl)c(OC)cc(OC)c3Cl)ccc2n1 [Compound 27, N-[(3R,4S)-4-{[6-(2,6-dichloro-3,5-dimethoxyphenyl)quinazolin-2-yl]amino}oxolan-3-yl]prop-2-enamide]",IC50,wild type FGFR-4,< 0.01 µM
same,IC50,[1],< 0.01 µM
same,tumor response,"Hep3B xenograft tumors; 100 mg/kg PO BID, Hep3B xenograft, nude mice",regressed and almost disappeared
same,tumor volume compared with vehicle group,"Hep3B xenograft tumors; 30 and 100 mg/kg PO BID, Hep3B xenograft, nude mice",Statistically significant reduction of tumor volumes
same,body weight change,"Hep3B xenograft tumors; Hep3B-bearing nude mice, only the 100 mg/kg PO BID group did not lose bodyweight",could alleviate body weight loss
same,tumor volume compared with vehicle group during the entire study,"Hep3B xenograft tumors; all treated groups, 10 mg/kg to 100 mg/kg, Hep3B xenograft, nude mice",significant reduction of tumor volume
same,tolerability,"Hep3B xenograft tumors; current dosages and dosing schedule (10 to 100 mg/kg PO BID), nude mice",well tolerated
same,dose dependence of tumor inhibition efficiency,Hep3B xenograft tumors; increasing dosage from 10 mg/kg to 100 mg/kg,enhanced the tumor inhibition efficiency
